Source: patent US9012365B2, “Compatibility agents for herbicidal formulations comprising 2,4-(Dichlorophenoxy) acetic acid salts” (priority 2006, dated 2015)

What was measured:
Type in all cases: physicochemical
[1] = System appearance and pH after adding chemicals into System A
From the text: System appearance after adding various chemicals into “System A” which was 100 g of 3% 2,4-D DMA (50%)+90% water (1000 ppm)+7% Ammonium sulfate (40%).

[2] = Appearance of 10 g solution of (2.5 wt % ai 2,4-D DMA + tested chemical) after adding 40% AMS; conditions: for 0 gram Appearance / Addition Weight of 40% AMS: System was cloud after adding / Addition Weight of 40% AMS: System was clear after adding: 2.5 wt % ai 2,4-D DMA; for Addition Weight of 40% AMS: System was cloud after adding / Addition Weight of 40% AMS: System was clear after adding: 10 g solution
Protocol: In this example, the appearance of a 10 g solution of (2.5 wt % ai 2,4-D DMA+tested chemical) was evaluated after adding 40% AMS

[3] = as above; conditions: summary statement of the description
[4] = Solubility of tested chemical in DI water
Protocol: (§1) In example 1, the electrolyte tolerance of 6 chemicals with and without the presence of 2,4-D amine was evaluated in ammonium sulfate system.

[5] = Electrolyte tolerance: 40% AMS added into 10 g 0.13% tested chemical in DI water
Protocol: as §1

[6] = added into 100 g System A, added wt 0.815 g Ethoquad, 0.079 g NH4OH, 0.091 g dimethylamine, 1.07 g NaOH
[7] = added wt 1.35 grams into 100 g System A
[8] = 0.13 wt % a.i. of tested chemical, 0 gram 40% AMS
[9] = 0.13 wt % a.i. of tested chemical
[10] = at 0 g AMS added, or at all additions (All)
[11] = 1.25 wt % a.i. of tested chemical
[12] = 0.05 wt % a.i. of tested chemical

Compound | 0 gram Appearance [2, 8] | Addition Weight of 40% AMS: System was cloud after adding [2, 9] [grams] | Addition Weight of 40% AMS: System was clear after adding [2, 9] | also measured
[Na+].[OH-] [10% NaOH, NaOH] | – | – | – | Appearance [1, 6]: clear; pH [1, 6]: 6; Appearance [1, 7]: crystals re-appeared; pH [1, 7]: 10
CNC [Dimethylamine 40%, Dimethylamine] | – | – | – | Appearance [1, 6]: slightly hazy; pH [1, 6]: 7.8
CC(C)O [Isopropyl alcohol] | Clear | 0.461 | – | Suitability for increasing the solubility of 2,4-D non-amine salt (in words) [3]: ineffective
CN1CCCC1=O [Methyl-2-pyrrolidinone] | Clear | 0.567 | 0.36 grams | Suitability for increasing the solubility of 2,4-D non-amine salt (in words) [3]: ineffective
N.O [NH4OH 28-30%, NH4OH] | – | – | – | Appearance [1, 6]: hazy; pH [1, 6]: 8
CCCCC(CC)COC(=O)CC(C(=O)OCC(CC)CCCC)S(=O)(=O)[O-].[Na+] (centres unmarked) [Sodium dioctyl sulfonsuccinate] | very cloudy | 0 | very cloudy | Suitability for increasing the solubility of 2,4-D non-amine salt (in words) [3]: ineffective
CCCCCCCCO [octanol] | – | – | – | Suitability for increasing the solubility of 2,4-D non-amine salt (in words) [3]: ineffective
Cocodimethylamidopropylamine | Clear | 1.731 | 1.488 grams | –
Cocotrimethyl Chloride | Clear | 2.123 | 2.038 grams | –
Iso C13 + 4EO phosphate ester (acid) | Clear | 0.324 | – | –
Iso C13 etheramine-5EO | Clear | 2.045 | 1.732 grams | –
Na Cocoamphocarboxyglycinate | – | – | – | 0 gram Appearance [2, 11]: Clear; Addition Weight of 40% AMS: System was clear after adding [2, 11]: 0.25 grams; Addition Weight of 40% AMS: System was cloud after adding [2, 11]: 0.508 grams
Nonylphenol-4EO | cloudy | 0 | cloudy | –
Nonylphenol-6EO (5EO) | Hazy | 0 | Hazy | –
Nonylphenol-9EO | Clear | 0.601 | 0.473 grams | –
Nonylphenol-9EO carboxylate | Clear | 1.692 | 1.312 grams | –
Nonylphenol-12EO | Clear | 0.502 | 0.415 grams | –

Compound | 0 gram Appearance [2, 8] | Addition Weight of 40% AMS: System was cloud after adding [2, 9] [grams] | Addition Weight of 40% AMS: System was clear after adding [2, 9] | also measured
Nonylphenol-30EO | Clear | 0.584 | 0.487 grams | –
Octyliminodipropionate | – | – | – | 0 gram Appearance [2, 11]: Clear; Addition Weight of 40% AMS: System was clear after adding [2, 11]: 0.283 grams; Addition Weight of 40% AMS: System was cloud after adding [2, 11]: 0.602 grams
Oleylamphopolycarboxyglycinate | Clear | 0.459 | 0.261 grams | –
Phenol ethoxylate | Clear | 0.577 | – | –
Sodium xylene sulfonate | Clear | 0.524 | – | –
Tall oil fatty acid-4EO | very cloudy | 0 | very cloudy | –
Tallow acid + triethanolamine + 10EO | Clear | 3.049 | 2.087 grams | –
Tallowamine-2EO | Clear | 1.513 | 1.31 grams | –
Tallowamine-6EO | Clear | 1.751 | 1.485 grams | –
Tallowamine-14EO | Clear | 1.526 | 1.273 grams | –
Trideceth-8 | Clear | 0.684 | 0.458 grams | –
Trideceth-12 | Clear | 0.688 | 0.581 grams | –
Triethyl ammonium phosphate | – | – | – | 0 gram Appearance [2, 11]: Clear; Addition Weight of 40% AMS: System was clear after adding [2, 11]: 0.303 grams; Addition Weight of 40% AMS: System was cloud after adding [2, 11]: 0.535 grams
Tristyrylphenol + 15EO | Clear | 2.509 | 2.102 grams | –
Tristyrylphenol + 16EO | Clear | 2.235 | 1.084 grams | –
ethoxylated (2EO) cocoamide oxides | – | – | – | Suitability for increasing the solubility of 2,4-D non-amine salt (in words) [3]: ineffective

The next lines start with results.

0 gram Appearance [2, 8] | Addition Weight of 40% AMS: System was cloud after adding [2, 9] [grams] | Addition Weight of 40% AMS: System was clear after adding [2, 9] | Compound | also measured
Clear | 0.554 | 0.476 grams | Castor oil ethoxylate-55EO | Solubility of tested chemical in DI Water [4]: >20%; Appearance, added 40% AMS wt into 10 g 0.13% tested chemical in DI water [5, 10]: clear; Added 40% AMS wt into 10 g 0.13% tested chemical in DI water, hazy ([5]; no 2,4-D): 3.74 hazy g; Added 40% AMS wt into 10 g 0.13% tested chemical in DI water, still clear ([5]; no 2,4-D): 3.63 g; Added 40% AMS wt into 10 g (2.5% 2,4-D + 0.13% tested chemical in DI water), hazy ([2]; Table of Example 1): 0.55 g; Added 40% AMS wt into 10 g (2.5% 2,4-D + 0.13% tested chemical in DI water), still clear ([2]; Table of Example 1): 0.48 g; Appearance, added 40% AMS wt into 10 g (2.5% 2,4-D + 0.13% tested chemical in DI water) [2, 10]: clear
Clear | 1.541 | 1.454 grams | Cocoamine-10EO | –
Clear | 0.829 | 0.665 grams | Di (propylene glycol) methyl ether | –
Clear | 0.163 | – | Ethoxylated (6EO) caprylic & capric glycerol ester | –
Clear | 1.25 | 1.037 grams | Ethoxylated (20EO) sorbitol ester | –
Clear | 0.71 | 0.661 grams | Polyoxyethylene Sorbitol Tallate | –
Clear | 0.329 | – | Propyl glycosides | –
Clear | 2.546 | 1.896 grams | Sodium lauryl olefin sulfonate | 0 gram Appearance [2, 12]: Clear; Addition Weight of 40% AMS: System was clear after adding [2, 12]: 1.526 grams; Addition Weight of 40% AMS: System was cloud after adding [2, 12]: 2.121 grams
Clear | 0.756 | 0.482 grams | Soya acid ethoxylate-10EO | –
Clear | 2.243 | 1.591 grams | Tall oil fatty acid amidoamine-10EO | –
Clear | 2.014 | 1.731 grams | Tallowamine-15EO methylchloride | –
cloudy | 0 | cloudy | Trideceth-4 | –
Clear | 0.717 | 0.47 grams | Trideceth-6 | –
Clear | 0.685 | 0.557 grams | Trideceth-10 | –
